According to patent US20260176320A1, “MODULATORS OF G-PROTEIN COUPLED RECEPTORS” (priority 2018, published 2026):
pEC50: −log10 of the molar value. Like-named read-outs stand apart in the source and are kept apart here. Square brackets hold non-standard residues; d marks the D form. Peptide text beside a SMILES is read from it. * marks the point of attachment. X3 = O=C(CSCC(=O)*)NCCn1ccccc1=O; Aib = CC(C)(N)C(=O)O

Assays:
Assay type in all cases: cell-based
[1] = target: T1, GLP-1R (Homo sapiens, UniProt P43220); assay: HitHunter cAMP assay (GLP-1R); conditions: cAMP; for Emax: read-out: (Emax) GLP-1R
Procedure, shortened: (§1)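 Suspension cells (10,000/well) in HBSS with 10 mM HEPES, 625 μM IBMX, 0.2% BSA exposed to 22-point 2-fold agonist series in duplicate for 30 min at room temperature. cAMP measured by antibody immunocompetition with overnight development, luminescence read-out.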

[2] = target: T2, GIP-R (Homo sapiens, UniProt P48546); assay: HitHunter cAMP assay (GIP-R); conditions: cAMP; for Emax: read-out: (Emax) GIP-R
T2 sequence (P48546 22-466): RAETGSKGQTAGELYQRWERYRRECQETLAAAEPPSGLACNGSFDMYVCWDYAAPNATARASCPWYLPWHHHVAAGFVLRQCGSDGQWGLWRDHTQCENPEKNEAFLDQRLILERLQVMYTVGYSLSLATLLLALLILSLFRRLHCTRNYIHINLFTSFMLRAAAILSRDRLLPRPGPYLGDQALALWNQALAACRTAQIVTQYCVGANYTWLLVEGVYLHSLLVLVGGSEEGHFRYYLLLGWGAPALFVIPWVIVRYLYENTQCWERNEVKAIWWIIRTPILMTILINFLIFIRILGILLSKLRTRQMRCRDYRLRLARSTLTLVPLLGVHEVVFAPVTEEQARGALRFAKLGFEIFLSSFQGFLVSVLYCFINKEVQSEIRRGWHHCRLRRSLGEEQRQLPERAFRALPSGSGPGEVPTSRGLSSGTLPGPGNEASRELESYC
Procedure, shortened: as §1

[3] = target: T1, GLP-1R; assay: PathHunter β-arrestin assay
Procedure, shortened: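 Cells (5,000/well) plated overnight, then exposed to a 22-point 2-fold agonist dilution series in medium with 0.2% BSA for 90 min at 37 °C, 5% CO2. PathHunter detection reagent added; after 3 h at room temperature in the dark, luminescence read.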

[4] = Table 3, read-out: EC50 GLP-1R/nM
[5] = Table 3A, read-out: EC50 GLP-1R/nM
[6] = Table 3, read-out: EC50 GIP-R/nM
[7] = Table 3A, read-out: EC50 GIP-R/nM
[8] = PathHunter β-arrestin assay, read-out: β-arrestin activity EC50

T1 sequence (P43220 24-463): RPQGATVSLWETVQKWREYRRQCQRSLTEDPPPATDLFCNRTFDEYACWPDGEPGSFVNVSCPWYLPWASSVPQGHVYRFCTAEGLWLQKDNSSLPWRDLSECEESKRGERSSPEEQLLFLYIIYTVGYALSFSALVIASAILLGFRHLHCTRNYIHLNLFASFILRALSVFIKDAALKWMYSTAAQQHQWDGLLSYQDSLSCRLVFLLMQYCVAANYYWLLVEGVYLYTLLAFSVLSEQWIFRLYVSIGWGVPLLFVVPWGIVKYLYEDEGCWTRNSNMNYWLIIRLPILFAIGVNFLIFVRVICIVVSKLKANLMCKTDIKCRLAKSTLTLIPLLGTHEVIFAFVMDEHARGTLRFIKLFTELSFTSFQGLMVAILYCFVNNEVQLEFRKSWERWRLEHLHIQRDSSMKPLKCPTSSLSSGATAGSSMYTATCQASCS

SMILES	EC50 ([1]; EC50 GLP-1R/nM, Table 3)	EC50 ([1]; EC50 GLP-1R/nM, Table 3A)	Emax ([1]; Table 3)	Emax ([1]; Table 3A)	EC50 ([2]; EC50 GIP-R/nM, Table 3)	EC50 ([2]; EC50 GIP-R/nM, Table 3A)	Emax ([2]; Table 3)	Emax ([2]; Table 3A)	pEC50 [3]	EC50 [1, 4]	EC50 [1, 5]	EC50 [2, 6]	EC50 [2, 7]	pEC50 [3, 8]	EC50 ([2]; read-out: EC50 GIP-R/nM, Table 3)	EC50 ([2]; read-out: EC50 GIP-R/nM, Table 3A)
CC[C@H](C)[C@H](NC(=O)[C@H](CO)NC(=O)[C@H](Cc1ccc(O)cc1)NC(=O)[C@H](CC(=O)O)NC(=O)[C@H](CO)NC(=O)[C@@H](NC(=O)[C@H](Cc1ccccc1)NC(=O)[C@@H](NC(=O)CNC(=O)[C@H](CCC(=O)O)NC(=O)C(C)(C)C(=O)NCCn1ncc2ccccc2c1=O)[C@@H](C)O)[C@@H](C)O)C(=O)N[C@@H](Cc1ccc(O)cc1)C(=O)N[C@@H](CC(C)C)C(=O)N[C@@H](CC(=O)O)C(=O)N[C@@H](CCCCN)C(=O)N[C@@H](CCC(N)=O)C(=O)N[C@@H](C)C(=O)N[C@@H](C)C(=O)NC(C)(C)C(=O)N[C@@H](CCC(=O)O)C(=O)N[C@@H](Cc1ccccc1)C(=O)N[C@H](C(=O)N[C@@H](CC(N)=O)C(=O)N[C@@H](Cc1c[nH]c2ccccc12)C(=O)N[C@@H](CC(C)C)C(=O)N[C@@H](CC(C)C)C(=O)N[C@@H](C)C(=O)NCC(=O)NCC(=O)N1CCC[C@H]1C(=O)N[C@@H](CO)C(=O)N[C@@H](CO)C(=O)NCC(=O)N[C@@H](C)C(=O)N1CCC[C@H]1C(=O)N1CCC[C@H]1C(=O)N1CCC[C@H]1C(=O)N[C@@H](CO)C(=O)N[C@@H](CCCCN)C(N)=O)C(C)C [Compound 116]	< 0.1 nM	< 0.1 nM	98%	98%	10 to 100 nM	10 to 100 nM	50%	50%	< 6.00							
CC[C@H](C)[C@H](NC(=O)[C@H](CO)NC(=O)[C@H](Cc1ccc(O)cc1)NC(=O)[C@H](CC(=O)O)NC(=O)[C@H](CO)NC(=O)[C@@H](NC(=O)[C@H](Cc1ccccc1)NC(=O)[C@@H](NC(=O)CNC(=O)[C@H](CCC(=O)O)NC(=O)CSCC(=O)NCCn1ccccc1=O)[C@@H](C)O)[C@@H](C)O)C(=O)N[C@@H](Cc1ccc(O)cc1)C(=O)N[C@@H](CC(C)C)C(=O)N[C@@H](CC(=O)O)C(=O)N[C@@H](CCCCN)C(=O)N[C@@H](CCC(N)=O)C(=O)N[C@@H](C)C(=O)N[C@@H](C)C(=O)NC(C)(C)C(=O)N[C@@H](CCC(=O)O)C(=O)N[C@@H](Cc1ccccc1)C(=O)N[C@H](C(=O)N[C@@H](CC(N)=O)C(=O)N[C@@H](Cc1c[nH]c2ccccc12)C(=O)N[C@@H](CC(C)C)C(=O)N[C@@H](CC(C)C)C(=O)N[C@@H](C)C(=O)NCC(=O)NCC(=O)N1CCC[C@H]1C(=O)N[C@@H](CO)C(=O)N[C@@H](CO)C(=O)NCC(=O)N[C@@H](C)C(=O)N1CCC[C@H]1C(=O)N1CCC[C@H]1C(=O)N1CCC[C@H]1C(=O)N[C@@H](CO)C(=O)N[C@@H](CCCCN)C(N)=O)[C@@H](C)CC [Compound 118] (X3-EGTFTSDYSIYLDKQAA[Aib]EFINWLLAGGPSSGAPPPSK-NH2)			95%	95%			35%	35%		< 0.1 nM	< 0.1 nM	1 to 10 nM	1 to 10 nM	< 6.00		
CC[C@H](C)[C@H](NC(=O)[C@H](CO)NC(=O)[C@H](Cc1ccc(O)cc1)NC(=O)[C@H](CC(=O)O)NC(=O)[C@H](CO)NC(=O)[C@@H](NC(=O)[C@H](Cc1ccccc1)NC(=O)[C@@H](NC(=O)CNC(=O)[C@H](CCC(=O)O)NC(=O)C1(C(=O)NCCN2C(=O)CSC2=O)CCCCC1)[C@@H](C)O)[C@@H](C)O)C(=O)N[C@@H](Cc1ccc(O)cc1)C(=O)N[C@@H](CC(C)C)C(=O)N[C@@H](CC(=O)O)C(=O)N[C@@H](CCCCN)C(=O)N[C@@H](CCC(N)=O)C(=O)N[C@@H](C)C(=O)N[C@@H](C)C(=O)NC(C)(C)C(=O)N[C@@H](CCC(=O)O)C(=O)N[C@@H](Cc1ccccc1)C(=O)N[C@H](C(=O)N[C@@H](CC(N)=O)C(=O)N[C@@H](Cc1c[nH]c2ccccc12)C(=O)N[C@@H](CC(C)C)C(=O)N[C@@H](CC(C)C)C(=O)N[C@@H](C)C(=O)NCC(=O)NCC(=O)N1CCC[C@H]1C(=O)N[C@@H](CO)C(=O)N[C@@H](CO)C(=O)NCC(=O)N[C@@H](C)C(=O)N1CCC[C@H]1C(=O)N1CCC[C@H]1C(=O)N1CCC[C@H]1C(=O)N[C@@H](CO)C(=O)N[C@@H](CCCCN)C(N)=O)C(C)C [Compound 119]			97%	97%			41%	41%		< 0.1 nM	< 0.1 nM	1 to 10 nM	10 to 100 nM	> 8.00		
CCCCCCCCCCCCCCCC(=O)N[C@@H](CCC(=O)NCCCC[C@H](NC(=O)[C@H](CO)NC(=O)[C@@H]1CCCN1C(=O)[C@@H]1CCCN1C(=O)[C@@H]1CCCN1C(=O)[C@H](C)NC(=O)CNC(=O)[C@H](CO)NC(=O)[C@H](CO)NC(=O)[C@@H]1CCCN1C(=O)CNC(=O)CNC(=O)[C@H](C)NC(=O)[C@H](CC(C)C)NC(=O)[C@H](CC(C)C)NC(=O)[C@H](Cc1c[nH]c2ccccc12)NC(=O)[C@H](CC(N)=O)NC(=O)[C@@H](NC(=O)[C@H](Cc1ccccc1)NC(=O)[C@H](CCC(=O)O)NC(=O)C(C)(C)NC(=O)[C@H](C)NC(=O)[C@H](C)NC(=O)[C@H](CCC(N)=O)NC(=O)[C@H](CCCCN)NC(=O)[C@H](CC(=O)O)NC(=O)[C@H](CC(C)C)NC(=O)[C@H](Cc1ccc(O)cc1)NC(=O)[C@@H](NC(=O)[C@H](CO)NC(=O)[C@H](Cc1ccc(O)cc1)NC(=O)[C@H](CC(=O)O)NC(=O)[C@H](CO)NC(=O)[C@@H](NC(=O)[C@H](Cc1ccccc1)NC(=O)[C@@H](NC(=O)CNC(=O)[C@H](CCC(=O)O)NC(=O)CSCC(=O)NCCN1C(=O)CCCC1=O)[C@@H](C)O)[C@@H](C)O)[C@@H](C)CC)C(C)C)C(N)=O)C(=O)O [Compound 123]	1 to 10 nM	1 to 10 nM	104%	104%	0.1 to 1 nM	0.1 to 1 nM	111%	111%	< 6.00							
CC[C@H](C)[C@H](NC(=O)[C@H](CO)NC(=O)[C@H](Cc1ccc(O)cc1)NC(=O)[C@H](CC(=O)O)NC(=O)[C@H](CO)NC(=O)[C@@H](NC(=O)[C@H](Cc1ccccc1)NC(=O)[C@@H](NC(=O)CNC(=O)[C@H](CCC(=O)O)NC(=O)CC(=O)NCCCN1C(=O)c2ccc(C)cc2C1=O)[C@@H](C)O)[C@@H](C)O)C(=O)N[C@@H](Cc1ccc(O)cc1)C(=O)N[C@@H](CC(C)C)C(=O)N[C@@H](CC(=O)O)C(=O)N[C@@H](CCCCN)C(=O)N[C@@H](CCC(N)=O)C(=O)N[C@@H](C)C(=O)N[C@@H](C)C(=O)NC(C)(C)C(=O)N[C@@H](CCC(=O)O)C(=O)N[C@@H](Cc1ccccc1)C(=O)N[C@H](C(=O)N[C@@H](CC(N)=O)C(=O)N[C@@H](Cc1c[nH]c2ccccc12)C(=O)N[C@@H](CC(C)C)C(=O)N[C@@H](CC(C)C)C(=O)N[C@@H](C)C(=O)NCC(=O)NCC(=O)N1CCC[C@H]1C(=O)N[C@@H](CO)C(=O)N[C@@H](CO)C(=O)NCC(=O)N[C@@H](C)C(=O)N1CCC[C@H]1C(=O)N1CCC[C@H]1C(=O)N1CCC[C@H]1C(=O)N[C@@H](CO)C(=O)N[C@@H](CCCCN)C(N)=O)C(C)C [Compound 128]	1 to 10 nM	1 to 10 nM	99%	99%			68%	68%	< 6.00						1 to 100 nM	1 to 100 nM
